In PMC6112376, “Comprehensive Analyses and Prioritization of Tox21 10K Chemicals Affecting Mitochondrial Function by in-Depth Mechanistic Studies” (Environmental Health Perspectives, 2018):
Read-outs that look alike come from different tables or passages of the source.

How the values were obtained:
HepG2 cells [1] = experiment: Intracellular ATP content (cell viability) assay; type: cell-based, human; settings: Homo sapiens, HepG2, 40 h
HepG2 cells [2] = experiment: ROS-Glo hydrogen peroxide (ROS) assay; type: cell-based, human
HepG2 cells [3] = experiment: cells; settings: Homo sapiens; for Emax: HepG2, read-out: MMP assays efficacy (%) HepG2
[4] = system: Caenorhabditis elegans (Bristol N2); experiment: C. elegans larval development and growth assay; settings: for minimal effective concentration: Caenorhabditis elegans, read-out: LEC EXT: lowest effect concentration for extinction, a measure of nematode size
rat primary hepatocytes [5] = system: rat primary hepatocytes
rat primary hepatocytes [6] = experiment: MMP assay in rat primary hepatocytes; settings: Rattus norvegicus, Hepatocyte
[7] = system: Caenorhabditis elegans strain PE255; settings: PE255 [sur-5::luc+::gfp; rol-6(su1006)], Caenorhabditis elegans, in vivo
[8] = system: isolated rat liver mitochondria; experiment: Oxygen consumption, Clark-type oxygen electrode; type: biochemical
hNSC = experiment: MMP assay in human neural stem cells (hNSC); type: cell-based; settings: Homo sapiens, Neural stem cell, 1 h, read-out: hNSC IC50 (MMP)
[9] = system: HeLa cells expressing YFP-Parkin; experiment: Parkin translocation assay; type: cell-based, human
[10] = system: Nrf2/ARE (ARE-bla HepG2 cells); experiment: ARE β-lactamase reporter gene assay; type: cell-based, human; settings: 16 h incubation, mean±SD of three experiments
HepG2 cells [11] = settings: cited from earlier work
[12] = system: Caenorhabditis elegans strain PE255; experiment: In vivo C. elegans ATP status assay; settings: for minimal effective concentration: Caenorhabditis elegans, read-out: LEC LUM: lowest effect concentration for luminescence, a measure of nematode ATP content
[13] = system: p53 (p53-bla HCT-116 cells); experiment: p53 β-lactamase reporter gene assay; type: cell-based, human; settings: Homo sapiens; 16 h incubation; mean±SD of three experiments
[14] = system: mitochondrial respiratory chain complex V; type: biochemical, rat; settings: at 20μM
[15] = system: mitochondrial respiratory chain complex III; type: biochemical, rat
[16] = system: Caenorhabditis elegans (Bristol N2); settings: Bristol N2 (wild type), Caenorhabditis elegans, in vivo
[17] = target: T1, mitochondrial respiratory chain complex II (Rattus norvegicus, UniProt P21913+Q641Z9+Q6PCT8+Q920L2); experiment: Respiratory chain complex II activity; type: biochemical; settings: at 0.8μM; mean±SD of three experiments
T1 construct: Submitochondrial particles were prepared by subjecting the intact rat mitochondria, isolated as described above, to three successive freeze–thaw cycles; from tissue; host or cells: rat liver mitochondria (submitochondrial particles)
T1 sequence (Q920L2 35-656): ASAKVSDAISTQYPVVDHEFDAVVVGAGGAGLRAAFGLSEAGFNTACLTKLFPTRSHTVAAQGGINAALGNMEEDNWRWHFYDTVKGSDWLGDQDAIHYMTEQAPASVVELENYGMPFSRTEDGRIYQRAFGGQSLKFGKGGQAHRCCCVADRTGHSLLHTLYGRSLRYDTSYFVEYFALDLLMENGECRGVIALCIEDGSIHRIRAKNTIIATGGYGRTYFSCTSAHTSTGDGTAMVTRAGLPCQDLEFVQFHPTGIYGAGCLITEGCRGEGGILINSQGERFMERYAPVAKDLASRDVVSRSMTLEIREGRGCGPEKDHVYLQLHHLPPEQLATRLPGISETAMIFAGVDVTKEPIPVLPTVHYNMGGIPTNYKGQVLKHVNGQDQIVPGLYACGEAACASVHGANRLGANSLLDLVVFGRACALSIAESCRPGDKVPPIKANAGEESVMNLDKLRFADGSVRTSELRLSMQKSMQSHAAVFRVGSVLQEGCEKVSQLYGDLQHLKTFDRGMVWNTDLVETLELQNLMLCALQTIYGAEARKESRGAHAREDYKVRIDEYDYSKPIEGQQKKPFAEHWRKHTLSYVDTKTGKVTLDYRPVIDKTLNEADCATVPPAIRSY
T1 sequence (P21913 31-282): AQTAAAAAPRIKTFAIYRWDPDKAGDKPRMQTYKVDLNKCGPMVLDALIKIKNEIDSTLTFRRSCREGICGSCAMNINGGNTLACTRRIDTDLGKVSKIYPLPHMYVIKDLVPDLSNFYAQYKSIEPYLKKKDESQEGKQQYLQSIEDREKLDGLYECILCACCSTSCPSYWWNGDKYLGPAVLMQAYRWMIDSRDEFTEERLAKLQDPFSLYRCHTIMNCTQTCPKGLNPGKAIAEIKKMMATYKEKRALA
T1 sequence (Q641Z9 1-169): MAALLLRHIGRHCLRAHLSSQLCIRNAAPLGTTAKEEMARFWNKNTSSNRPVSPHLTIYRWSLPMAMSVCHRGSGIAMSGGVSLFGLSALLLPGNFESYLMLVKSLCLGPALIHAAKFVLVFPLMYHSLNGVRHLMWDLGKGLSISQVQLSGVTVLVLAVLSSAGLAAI
T1 sequence (Q6PCT8 57-159): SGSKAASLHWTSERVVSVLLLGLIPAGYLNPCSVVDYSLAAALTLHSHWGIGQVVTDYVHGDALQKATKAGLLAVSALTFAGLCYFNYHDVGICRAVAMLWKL

[18] = system: mitochondrial respiratory chain complex IV; type: biochemical, rat
[19] = system: mitochondrial respiratory chain complex I; type: biochemical, rat
[20] = read-out: ATP (HepG2, galactose) IC50
[21] = read-out: ATP (HepG2, glucose) IC50
[22] = HepG2, 1 h, read-out: HepG2 IC50 Galactose (MMP)
[23] = HepG2, 1 h, read-out: HepG2 IC50 Glucose (MMP)
[24] = HepG2, read-out: MMP assays IC50 (µM) HepG2
[25] = 1 h, read-out: Rat hepatocytes IC50 (MMP)
[26] = read-out: MMP assays IC50 (µM) Rat Hepatocytes

Nc1ccc(N)c2c1C(=O)c1ccccc1C2=O [1,4-Diaminoanthraquinone]
IC50 (HepG2 cells [1]; [20]): 22.3 µM
IC50 (HepG2 cells [1]; [21]): 24.7 µM
ROS (HepG2) EC50 (HepG2 cells [2]): Inactive
IC50 (HepG2 cells [3]; [22]): 1.13 µM
IC50 (HepG2 cells [3]; [23]): 0.77 µM
IC50 (HepG2 cells [3]; [24]): 0.22 µM
Emax (HepG2 cells [3]): 81%
EXT: mean difference in nematode size relative to plate controls ([4]; 0.5 µM): 0.03102
EXT: mean difference in nematode size relative to plate controls ([4]; 1 µM): 0.01427
EXT: mean difference in nematode size relative to plate controls ([4]; 5 µM): 0.05881
EXT: mean difference in nematode size relative to plate controls ([4]; 10 µM): -0.04953
EXT: mean difference in nematode size relative to plate controls ([4]; 25 µM): 0.1095
EXT: mean difference in nematode size relative to plate controls ([4]; 50 µM): 0.2596
EXT: mean difference in nematode size relative to plate controls ([4]; 75 µM): 0.3422
EXT: mean difference in nematode size relative to plate controls ([4]; 100 µM): 0.4149
minimal effective concentration [4]: 25 µM
MMP assays efficacy (%) Rat Hepatocytes (rat primary hepatocytes [5]): -93±8%
Rat hepatocytes (efficacy) (MMP) (rat primary hepatocytes [5]): 3.79±1.62 ( −118±24.7 ) %
IC50 (rat primary hepatocytes [6]; [25]): 3.79 µM
IC50 (rat primary hepatocytes [6]; [26]): 1.24 ± 0.76 µM
LEC (lowest effect concentration), ATP assay [7]: ≤ 10 µM
Potential Mechanism [8]: Inactive
I-ADP, % of control (O2 consumption rate) ([8]; 20 µM): 89 (44.1) % of control
I-sub, % of control (O2 consumption rate) ([8]; 20 µM): 103 (14.2) % of control
II-ADP, % of control (O2 consumption rate) ([8]; 20 µM): 90 (80.2) % of control
II-sub, % of control (O2 consumption rate) ([8]; 20 µM): 100 (27.1) % of control
I-ADP, % of control (O2 consumption rate) ([8]; 100 µM): 82 (23.4) % of control
I-sub, % of control (O2 consumption rate) ([8]; 100 µM): 95 (11.4) % of control
II-ADP, % of control (O2 consumption rate) ([8]; 100 µM): 97 (35.2) % of control
II-sub, % of control (O2 consumption rate) ([8]; 100 µM): 95 (14.1) % of control
IC50 (hNSC): 0.15 µM
Parkin recruitment [9]: Inactive
EC50 ([10]; Homo sapiens, HepG2, read-out: ARE (HepG2) EC50): 22.9 ± 27.4 µM
MMP assays efficacy (%) qHTS-HepG2 (HepG2 cells [11]): -82±13%
IC50 (HepG2 cells [11]; read-out: MMP assays IC50 (µM) qHTS-HepG2): 0.03 ± 0.01 µM
LUM: mean difference in luminescence (ATP content) relative to plate controls ([12]; 0.5 µM): 0.03036
LUM: mean difference in luminescence (ATP content) relative to plate controls ([12]; 1 µM): 0.08336
LUM: mean difference in luminescence (ATP content) relative to plate controls ([12]; 5 µM): 0.4462
LUM: mean difference in luminescence (ATP content) relative to plate controls ([12]; 10 µM): 0.9963
LUM: mean difference in luminescence (ATP content) relative to plate controls ([12]; 25 µM): 1.526
LUM: mean difference in luminescence (ATP content) relative to plate controls ([12]; 50 µM): 1.59
LUM: mean difference in luminescence (ATP content) relative to plate controls ([12]; 75 µM): 2.063
LUM: mean difference in luminescence (ATP content) relative to plate controls ([12]; 100 µM): 2.457
minimal effective concentration [12]: 5 µM
EC50 [13]: 35.7 ± 2.41 µM

O=C(Nc1ccc(Oc2ccc(Cl)cc2)c(Cl)c1)c1cc(I)cc(I)c1O [Rafoxanide, reference compound]
Complex V % inhibition [14]: 40.1±1.87 at 20μM %
IC50 (HepG2 cells [1]; [20]): 54.1 µM
IC50 (HepG2 cells [1]; [21]): 46.7 µM
EC50 (HepG2 cells [2]; Homo sapiens, HepG2, 2 h, read-out: ROS (HepG2) EC50): 26.5 µM
IC50 (HepG2 cells [3]; [22]): 18.6 µM
IC50 (HepG2 cells [3]; [23]): 20.9 µM
IC50 (HepG2 cells [3]; [24]): 1.23 µM
Emax (HepG2 cells [3]): 119%
Complex III % inhibition (activity call) [15]: Inactive
LEC (lowest effect concentration), larval growth assay [16]: ≤ 10 µM
EXT: mean difference in nematode size relative to plate controls ([4]; 0.5 µM): -0.03197
EXT: mean difference in nematode size relative to plate controls ([4]; 1 µM): 0.04544
EXT: mean difference in nematode size relative to plate controls ([4]; 5 µM): 0.3092
EXT: mean difference in nematode size relative to plate controls ([4]; 10 µM): 0.3633
EXT: mean difference in nematode size relative to plate controls ([4]; 25 µM): 1.242
EXT: mean difference in nematode size relative to plate controls ([4]; 50 µM): 1.69
EXT: mean difference in nematode size relative to plate controls ([4]; 75 µM): 0.8224
EXT: mean difference in nematode size relative to plate controls ([4]; 100 µM): 0.8924
minimal effective concentration [4]: 2.5 µM
MMP assays efficacy (%) Rat Hepatocytes (rat primary hepatocytes [5]): -91±18%
Rat hepatocytes (efficacy) (MMP) (rat primary hepatocytes [5]): 4.50±0.81 ( −72.1±10.3 ) %
inhibition at 0.8 µM [17]: 44.4 ± 6.56%
IC50 (rat primary hepatocytes [6]; [25]): 4.5 µM
IC50 (rat primary hepatocytes [6]; [26]): 1.86 ± 0.83 µM
Potential Mechanism [8]: Uncoupler + inhibitor
I-ADP, % of control (O2 consumption rate) ([8]; 0.0064 µM): 93 (51.1) % of control
I-sub, % of control (O2 consumption rate) ([8]; 0.0064 µM): 94 (12.3) % of control
II-ADP, % of control (O2 consumption rate) ([8]; 0.0064 µM): 100 (88.4) % of control
II-sub, % of control (O2 consumption rate) ([8]; 0.0064 µM): 99 (24.3) % of control
I-ADP, % of control (O2 consumption rate) ([8]; 0.032 µM): 90 (41.4) % of control
I-sub, % of control (O2 consumption rate) ([8]; 0.032 µM): 118 (13.2) % of control
II-ADP, % of control (O2 consumption rate) ([8]; 0.032 µM): 70 (52.6) % of control
II-sub, % of control (O2 consumption rate) ([8]; 0.032 µM): 97 (20.0) % of control
I-ADP, % of control (O2 consumption rate) ([8]; 0.16 µM): 105 (48.3) % of control
I-sub, % of control (O2 consumption rate) ([8]; 0.16 µM): 163 (18.3) % of control
II-ADP, % of control (O2 consumption rate) ([8]; 0.16 µM): 63 (47.1) % of control
II-sub, % of control (O2 consumption rate) ([8]; 0.16 µM): 116 (23.9) % of control
I-ADP, % of control (O2 consumption rate) ([8]; 0.8 µM): 121 (55.6) % of control
I-sub, % of control (O2 consumption rate) ([8]; 0.8 µM): 379 (42.5) % of control
II-ADP, % of control (O2 consumption rate) ([8]; 0.8 µM): 45 (33.6) % of control
II-sub, % of control (O2 consumption rate) ([8]; 0.8 µM): 137 (28.2) % of control
I-ADP, % of control (O2 consumption rate) ([8]; 4 µM): 95 (43.7) % of control
I-sub, % of control (O2 consumption rate) ([8]; 4 µM): 399 (44.7) % of control
II-ADP, % of control (O2 consumption rate) ([8]; 4 µM): 23 (17.4) % of control
II-sub, % of control (O2 consumption rate) ([8]; 4 µM): 88 (18.1) % of control
I-ADP, % of control (O2 consumption rate) ([8]; 20 µM): 15 (7.1) % of control
I-sub, % of control (O2 consumption rate) ([8]; 20 µM): 116 (13.0) % of control
II-ADP, % of control (O2 consumption rate) ([8]; 20 µM): 15 (11.3) % of control
II-sub, % of control (O2 consumption rate) ([8]; 20 µM): 55 (11.4) % of control
IC50 (hNSC): 10.3 µM
Parkin recruitment [9]: Active
ARE (HepG2) EC50 [10]: Inactive
Complex IV % inhibition (activity call) [18]: Inactive
MMP assays efficacy (%) qHTS-HepG2 (HepG2 cells [11]): -110±8%
IC50 (HepG2 cells [11]; read-out: MMP assays IC50 (µM), qHTS-HepG2): 3.27 ± 1.76 µM
LUM: mean difference in luminescence (ATP content) relative to plate controls ([12]; 0.5 µM): 0.09174
LUM: mean difference in luminescence (ATP content) relative to plate controls ([12]; 1 µM): -0.0514
LUM: mean difference in luminescence (ATP content) relative to plate controls ([12]; 5 µM): 0.4289
LUM: mean difference in luminescence (ATP content) relative to plate controls ([12]; 10 µM): 0.2032
LUM: mean difference in luminescence (ATP content) relative to plate controls ([12]; 25 µM): 0.5878
LUM: mean difference in luminescence (ATP content) relative to plate controls ([12]; 50 µM): 0.4453
LUM: mean difference in luminescence (ATP content) relative to plate controls ([12]; 75 µM): 0.5488
LUM: mean difference in luminescence (ATP content) relative to plate controls ([12]; 100 µM): 0.6986
minimal effective concentration [12]: 75 µM
EC50 [13]: 9.11 ± 3.81 µM
Complex I % inhibition (activity call) [19]: Inactive
